Experimental findings from patent EP0533350B1, “DNA encoding precursor interleukin 1B converting enzyme” (Merck & Co., Inc., priority 1991, dated 1993) are described below.

Like-named read-outs stand apart in the source and are kept apart here. Where a SMILES comes first, the peptide text is derived from it. [ ]: non-standard residue; d: D form. The star is where a group is joined. Sta = CC(C)C[C@H](N)[C@@H](O)CC(=O)O; Isovaleryl = CC(C)CC(=O)*

In test [1] the target is T1, ICE (Homo sapiens, UniProt P29466).
T1 sequence (P29466 120-297): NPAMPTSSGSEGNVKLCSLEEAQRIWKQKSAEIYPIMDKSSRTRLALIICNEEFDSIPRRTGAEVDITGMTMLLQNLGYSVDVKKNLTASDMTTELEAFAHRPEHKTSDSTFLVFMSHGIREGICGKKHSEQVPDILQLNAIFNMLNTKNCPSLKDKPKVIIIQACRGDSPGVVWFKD
T1 sequence (P29466 317-404): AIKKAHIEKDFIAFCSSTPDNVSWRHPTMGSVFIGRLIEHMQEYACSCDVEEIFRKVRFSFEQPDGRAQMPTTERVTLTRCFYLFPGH
Put plainly: Discontinuous kinetic assay of ICE with P14mer as substrate. It is filed as biochemical. The arrangement: endogenous in cells; host or cells: THP.1 cells, S-300 (300,000 x g) cytosolic supernatant. The protocol:
Proteolytic cleavage of peptide substrates from Example 12 was carried out in the following manner. Samples of peptides were prepared in dimethyl sulfoxide at a concentration of 10 mM. The enzyme used in these studies was purified through sulfopropyl cation exhange chromatography. Reaction mixtures contained approximately 0.2 mg/ml enzyme, 0.2 mM peptide, 10% sucrose, 0.1% CHAPS (3-[(3-cholamidopropyl)dimethyl-ammonio]-1-propansulfon at), 10 mM HEPES (N-2-hydroxyethylpiperazine-N'-2-ethanesulfonic Acid), pH 7.5 in a 50 ul reaction volume. After incubation at 25 degrees for variable lengths of time, reactions were quenched with the addition of 450 ul 0.1% trifluoroacetic acid. The samples were analyzed by reverse-phase high performance liquid chromatography using a Vydac C-18 column (4.6 mm x 25 cm, 5 um particle size, 300 pore size) equilibrated with 5% acetonitrile, 0.1% trifluoroacetic acid at a flow rate of 1 ml/min. Peptides were eluted using a 10 min linear gradient of 5 to 30% acetonitrile and quantitated by monitoring the column effluent at 280 nm. Under these conditions substrate and tyrosine-containing product were separated with baseline resolution in every case. The identity of cleavage products was confirmed using peptide standards.
The data in Table 3 was generated using partially purified enzyme or THP-1 […] and the gel-based cleavage assay as an indicator of ICE activity. This has been verified and extended using the P14mer assay as well as Ac-Tyr-Val-Ala-Asp-AMC as substrates. The only exception to the results of this table came when 1,10 phenanthroline (OP) was tested as an inhibitor. […] The rate constant (8 x 10-2 s-1 M-1) for inactivation is slow and it is not possible to reconstitute ICE activity by addition of ZnC12 following treatment with the chelator. […] The data is not consistent with the hypothesis that ICE is a metalloprotease.

In test [2] the target is T1, ICE. Put plainly: Protease inhibitor sensitivity of ICE: inhibitor added to THP.1 S-300, gel-based pre-IL-1β cleavage assay.
Test [3] deals with T1, ICE. Put plainly: Mixed disulfide treatment of ICE, continuous fluorometric assay, DTT reversal and dilution stability. It is filed as biochemical. Also noted: endogenous in cells; host or cells: THP.1 cells, S-300 (300,000 x g) cytosolic supernatant.
The target of test [4] is T1, ICE. In words: Size exclusion chromatography (TSK G2000) of GSSG or cystamine treated ICE. Also noted: endogenous in cells; host or cells: THP.1 cells, S-300 (300,000 x g) cytosolic supernatant. The conditions noted are these: concentrated ICE pretreated 24 hrs, TSK G2000 column. Background: In gel filtration, larger molecules generally elute earlier.
Test [5] concerns the target T1, ICE.
Protocol: Using 14C-iodoacetate as the alkylating reagent a similar protocol was used to identify proteins that could be labeled in the presence or absence of 200 x Km substrate. […] ICE and 100 mM 14-C-iodoacetate were incubated in the presence (+S) or absence (-S) of 2.8 mM Ac-Tyr-Val-Ala-Asp-AMC and incubated for 1 hour. At 1 hour the reaction is quenched by the addition of 10 mM unlabeled iodoacetate and 10 mM DTT. Aliquots of the reaction were analyzed by SDS-PAGE followed by coomassie blue staining or autoradiography.
The target of test [6] is T2, recombinant ICE (Homo sapiens, UniProt P29466).
T2 construct: transfection of full-length ICE cDNA, including the complete ORF of the 45 kDa ICE preprotein; expressed in transfected cells; host or cells: COS-7 cells, vector pSZ-9016 co-transfected with pX8TAT; detergent lysate
T2 sequence (P29466 120-297 limits assumed): T1 sequence (P29466 120-297)
T2 sequence (P29466 317-404 limits assumed): T1 sequence (P29466 317-404)
In words: IL-1β precursor cleavage by lysates of COS-7 cells transfected with full-length ICE cDNA. It is filed as biochemical. Particulars: lysates of COS-7 cells transfected with ICE cDNA. The protocol:
The expression of recombinant ICE was achieved by transfection of full-length ICE cDNA, including the complete ORF of the 45 kDa ICE preprotein (Fig. 23), into a mammalian host cell. The 1.6 kb EcoRI fragment containing the full length ICE cDNA was cloned into vector pSZ-9016. 6µg of this DNA along with 0.6 ug of pX8TAT, a mammalian expression vector which places the trans-activating protein (TAT) of HIV under the control of the SV40 early promoter, was transfected into COS-7 cells by the cationic-liposome method. Cells were harvested 48 hours later and lysed in detergent buffer (25 mM HEPES pH 7, 1% Triton-X-100, 1mM EDTA, 2mM DTT, 10 ug/ml aprotinin, 10 ug/ml leupeptin, 10 ug/ml pepstatin, and 2 mM PMSF). Cell lysates were incubated with radiolabeled IL-1β precursor to measure ICE activity. Cleavage products of IL-1β were analyzed by immunoprecipitation with IL-1B antibody and fractionation on SDS polyacrylamide gels. The IL-1β precursor was cleaved to the mature, 17 kDa form by cells transfected with ICE cDNA, but not by cells transfected with the expression plasmid alone. […] The substrate specificity of the expressed ICE activity was verified by incubating lysates with an IL-1β precursor cleavage site mutant (Ala^116) which cannot be cleaved by ICE. […]

Test [7] addresses T1, ICE. In words: Inhibition of ICE by mechanism based thiol protease inhibitors (diazomethyl ketone, peptide aldehydes). The conditions noted are these: relative to Ac-Tyr-Val-Ala-Asp-CHO. It is filed as biochemical. Also noted: endogenous in cells; host or cells: THP.1 cells (or human peripheral blood monocytes); cytosolic extract, ammonium sulfate, DEAE, sulfopropyl cation exchange. The source says:
Characterization of ICE in terms of protease class was ultimately accomplished by the synthesis of two types of mechanism based thiol protease inhibitors, a diazomethyl ketone and a peptide aldehyde, both constructed from the Ac-Tyr-Val-Ala-Asp peptide. The peptidyl diazomethyl ketone (Ac-Tyr-Val-Ala-Asp-CHN2) and the peptide aldehyde (Ac-Tyr-Val-Ala-Asp-CHO) were both synthesized as described in an accompanying patent. […] However, the specificity of action on ICE has been determined by synthesis of a chemically similar peptide aldehyde, Ac-Tyr(dAla)-Val-Ala-Asp-CHO and tested for its ability to inhibit ICE in a competitive and reversible manner.

On to `c1cnc2c(c1)ccc1cccnc12` [1,10-phenanthroline], for which the “inhibition of ICE activity” value in test [1] (P14mer as substrate) was “can inhibit ICE activity in a time and concentration dependant manner”. Also, the “increase in the rate at which ICE is inhibited” value in test [1] (addition of 10 mM CuSO4 to assay containing 1.0 mM OP) was determined as 17 fold. Further, in test [1] (co-treatment with EDTA and OP), the “inhibition of ICE on co-treatment with two metal chelators” value is reported as “did not result in an inhibition of ICE”. In addition, the “inhibition of ICE activity in the gel based cleavage assay” value in test [2] is “did not inhibit”. In addition, the Inhibition entry in test [2] (Conc. 10 mM) is given as “-”.
In the case of `CC(C)CC(=O)N[C@H](C(=O)N[C@H](C(=O)N[C@@H](CC(C)C)[C@@H](O)CC(=O)N[C@@H](C)C(=O)N[C@@H](CC(C)C)[C@@H](O)CC(=O)O)C(C)C)C(C)C` [Chloromethyl ketonePepstatin, Pepstatin] (Isovaleryl-VV[Sta]A[Sta]-OH), the Inhibition entry in test [2] (Conc. 100 µM) is given as “-”.
Turning to `CC(C)CC(NC(=O)C1OC1C(=O)O)C(=O)NCCCCNC(=N)N` (stereo not shown) [Compound E-64], the Inhibition result in test [2] (Conc. 1 mM) is given as “-”.
With `NCCSSCCN` [Cystamine], in test [3] (5 mM cystamine), the “half-time of time dependant decrease in activity” value was 19 min. The enzyme activity recovered in test [3] (addition of DTT after the inactivation plateau, 5 mM cystamine) is 23%. Also, in test [3] (concentrated ICE (3 units/ml), 5 mM cystamine, 3 day equilibration at 4 °C, then DTT), the recovery of activity entry is “Complete recovery of activity”. The “stabilization of ICE activity” value in test [3] (upon dilution of treated enzyme) is “did not appear to stabilize ICE activity”. For the same compound, the “apparent Mr of treated enzyme” value in test [4] is listed as 22,000. For the same compound, the Inhibition result in test [2] (Conc. 1 mM) is on record as “+”.
Regarding `O=C(O)CN(CCN(CC(=O)O)CC(=O)O)CC(=O)O` [EDTA], the Inhibition result in test [2] (Conc. 50 mM) is recorded as “-”.
For `O=C(O)CN(CCOCCOCCN(CC(=O)O)CC(=O)O)CC(=O)O` [EGTA], in test [2] (Conc. 10 mM), the Inhibition result is “-”.
Turning to `NC(=O)CI` [Iodoacetamide], the Inhibition entry in test [2] is recorded as “+”.
As for `O=C(O)CI` [Iodoacetic acid], the “rate constant for inactivation of ICE” value in test [5] is 24 M⁻¹ s⁻¹. Further, in test [5] (100 mM iodoacetate, substrate at 1 * Km), the half-time of inhibition was 9.13 min. The compound also returned an ICE inactivated in test [5] (100 mM radiolabeled iodoacetate, 2.8 mM Ac-Tyr-Val-Ala-Asp-AMC (200 x Km) included) of under 2%. Also, in test [2], the Inhibition result was “+”.
As to `CC(=O)N[C@@H](Cc1ccc(O)cc1)C(=O)N[C@H](C(=O)N[C@@H](C)C(=O)N[C@H](C=O)CC(=O)O)C(C)C` [L-709,049], the “inhibition of IL-1β precursor cleavage to the mature 17 kDa form” value in test [6] was “completely inhibited”.
For `CC(=O)N[C@@H](CC(C)C)C(=O)N[C@@H](CC(C)C)C(=O)N[C@H](C=O)CCCNC(=N)N` [Leupeptin], the Inhibition entry in test [2] is given as “-”.
Still for that read-out and setting: the result for `CCN1C(=O)C=CC1=O` [N-ethyl maleimide] reads “+”.
On to `O=C1C=CC(=O)N1c1ccccc1` [N-phenyl maleimide], for which the Inhibition result in test [2] (Conc. 1 mM) is recorded as “+”.
Turning to `Cc1ccc(S(=O)(=O)N[C@@H](CCCCN)C(=O)CCl)cc1` [TLCK], the Inhibition result in test [2] is on record as “+”.
Consider `Cc1ccc(S(=O)(=O)N[C@@H](Cc2ccccc2)C(=O)CCl)cc1` [TPCK], for which the Inhibition result in test [2] is on record as “+”.
As for Ac-Tyr(dAla)-Val-Ala-Asp-CHO, the “less potent at inhibiting ICE activity” value in test [7] turned out to be 300 fold.
Take PMSF: the Inhibition result in test [2] is “-”.
